Source: patent publication US20210115040A1, “OGA INHIBITOR COMPOUNDS” (Janssen Pharmaceutica NV, priority 2018, published 2021)

biological target: T1, OGA (Homo sapiens, UniProt O60502); experiment: OGA cellular assay (ICC detection of O-GlcNAcylated proteins in HEK293 cells inducible for P301L mutant human Tau); assay type: cell-based; conditions: HEK293, HEK293 cells inducible for P301L mutant human Tau, maximum = Thiamet G 200 uM
T1 construct: HEK293 cells inducible for P301L mutant human Tau (isoform 2N4R) were established at Janssen; endogenous in cells; host or cells: HEK293 cells inducible for P301L mutant human Tau (2N4R)
T1 sequence (O60502 1-916): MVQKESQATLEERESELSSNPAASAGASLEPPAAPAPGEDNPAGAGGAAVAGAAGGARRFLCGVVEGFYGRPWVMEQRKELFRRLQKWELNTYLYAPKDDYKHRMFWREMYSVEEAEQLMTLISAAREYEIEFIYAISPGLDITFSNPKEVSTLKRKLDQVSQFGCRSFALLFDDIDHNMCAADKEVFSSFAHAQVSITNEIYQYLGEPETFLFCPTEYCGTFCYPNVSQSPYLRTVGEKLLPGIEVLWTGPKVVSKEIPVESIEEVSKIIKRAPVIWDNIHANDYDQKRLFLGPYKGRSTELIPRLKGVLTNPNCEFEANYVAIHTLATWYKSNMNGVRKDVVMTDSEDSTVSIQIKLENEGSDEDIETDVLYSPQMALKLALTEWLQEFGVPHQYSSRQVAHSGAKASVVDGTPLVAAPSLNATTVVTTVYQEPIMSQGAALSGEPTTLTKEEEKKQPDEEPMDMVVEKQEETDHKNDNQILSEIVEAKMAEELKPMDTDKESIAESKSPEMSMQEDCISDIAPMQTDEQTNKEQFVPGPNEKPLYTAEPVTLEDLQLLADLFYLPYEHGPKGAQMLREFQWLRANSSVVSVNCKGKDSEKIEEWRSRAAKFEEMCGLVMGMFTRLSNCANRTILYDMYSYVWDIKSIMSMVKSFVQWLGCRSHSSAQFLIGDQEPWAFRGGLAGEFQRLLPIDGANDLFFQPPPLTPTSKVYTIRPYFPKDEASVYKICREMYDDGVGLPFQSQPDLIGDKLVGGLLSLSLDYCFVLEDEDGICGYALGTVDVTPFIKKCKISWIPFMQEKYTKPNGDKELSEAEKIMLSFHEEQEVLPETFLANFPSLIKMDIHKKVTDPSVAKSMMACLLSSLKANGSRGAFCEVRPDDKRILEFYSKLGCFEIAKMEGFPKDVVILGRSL
Method: HEK293 cells inducible for P301L mutant human Tau (isoform 2N4R) were established at Janssen. Thiamet-G was used for both plate validation (high control) and as reference compound (reference EC50 assay validation). OGA inhibition is evaluated through the immunocytochemical (ICC) detection of O-GlcNAcylated proteins by the use of a monoclonal antibody (CTD110.6; Cell Signaling, #9875) detecting 0-GlcNAcylated residues as previously described (Dorfmueller et al. 2010 Chemistry & biology, 17:1250). Inhibition of OGA will result in an increase of O-GlcNAcylated protein levels resulting in an increased signal in the experiment. Cell nuclei are stained with Hoechst to give a cell culture quality control and a rough estimate of immediate compounds toxicity, if any. ICC pictures are imaged with a Perkin Elmer Opera Phenix plate microscope and quantified with the provided software Perkin Elmer Harmony 4.1.
Cells were propagated in DMEM high Glucose (Sigma, #D5796) following standard procedures. 2 days before the cell assay cells are split, counted and seeded in Poly-D-Lysine (PDL) coated 96-wells (Greiner, #655946) plate at a cell density of 12,000 cells per cm^2 (4,000 cells per well) in 100 μl of Assay Medium (Low Glucose medium is used to reduce basal levels of GlcNAcylation) (Park et al. 2014 The Journal of biological chemistry 289:13519). At the day of compound test medium from assay plates was removed and replenished with 90 μl of fresh Assay Medium. 10 μl of compounds at a 10fold final concentration were added to the wells. Plates were centrifuged shortly before incubation in the cell incubator for 6 hours. DMSO concentration was set to 0.2%. Medium is discarded by applying vacuum. For staining of cells medium was removed and cells washed once with 100 μl D-PBS (Sigma, #D8537). From next step onwards unless other stated assay volume was always 50 μl and incubation was performed without agitation and at room temperature. Cells were fixed in 50 μl of a 4% paraformaldehyde (PFA, Alpha aesar, #043368) PBS solution for 15 minutes at room temperature. […] Before analysis samples were washed 2 times manually for 5 minutes in ICC base buffer.
Imaging is performed using Perkin Elmer Phenix Opera using a water 20× objective and recording 9 fields per well. Intensity readout at 488 nm is used as a measure of O-GlcNAcylation level of total proteins in wells. To assess potential toxicity of compounds nuclei were counted using the Hoechst staining. IC50-values are calculated using parametric non-linear regression model fitting. As a maximum inhibition Thiamet G at a 200 uM concentration is present on each plate. In addition, a concentration response of Thiamet G is calculated on each plate.

| Emax | Structure (SMILES) |
| --- | --- |
| 77% | Cc1cc(C[C@@H]2CCN(C(C)c3nc4nc(C)sc4cc3F)C2)cc(C)n1 (mixture of isomers) [Compound 50] |
| 55% | Cc1cc([C@H]2CCCN([C@H](C)c3ccc4sc(C)nc4n3)C2)nc(C)n1 (racemic) [Compound 70] |
| -5% | Cc1cc([C@H]2CCCN([C@@H](C)c3ccc4sc(C)nc4n3)C2)nc(C)n1 (racemic) [Compound 71] |
| -1% | Cc1cc([C@H]2CCCN([C@H](C)c3ccc4sc(C)nc4n3)C2)cc(C)n1 (racemic) [Compound 75] |
| 67% | Cc1cc([C@H]2CCCN([C@@H](C)c3ccc4sc(C)nc4n3)C2)cc(C)n1 (racemic) [Compound 76] |
| 79% | COc1cc(C[C@H]2CCCN([C@H](C)c3ccc4oc(C)nc4n3)C2)cc(C)n1 (relative stereo) [Compound 23a] |
| 79% | Cc1cc(C[C@H]2CCCN(C(C)c3ccc4sc(C)nc4n3)C2)cc(C)n1 (single isomer, unassigned) [Compound 42b] |
| 5% | Cc1cc(CO[C@H]2CCCN(C(C)c3ccc4sc(C)nc4n3)C2)cc(C)n1 (single isomer, unassigned) [Compound 67] |
| -6% | Cc1cc(CO[C@@H]2CCCN(C(C)c3ccc4sc(C)nc4n3)C2)cc(C)n1 (single isomer, unassigned) [Compound 69] |

same assay, conditions: HEK293 cells inducible for P301L mutant human Tau, 6 hours incubation; read-out: Cellular hOGA; pEC50 (converted)

| EC50 | Structure (SMILES) |
| --- | --- |
| 0.2 µM | Cc1cc(C[C@@H]2CCN(C(C)c3nc4nc(C)sc4cc3F)C2)cc(C)n1 (mixture of isomers) [Compound 50] |
| 0.794 µM | Cc1cc([C@H]2CCCN([C@H](C)c3ccc4sc(C)nc4n3)C2)nc(C)n1 (racemic) [Compound 70] |
| > 1 µM | Cc1cc([C@H]2CCCN([C@@H](C)c3ccc4sc(C)nc4n3)C2)nc(C)n1 (racemic) [Compound 71] |
| > 1 µM | Cc1cc([C@H]2CCCN([C@H](C)c3ccc4sc(C)nc4n3)C2)cc(C)n1 (racemic) [Compound 75] |
| 0.0316 µM | Cc1cc([C@H]2CCCN([C@@H](C)c3ccc4sc(C)nc4n3)C2)cc(C)n1 (racemic) [Compound 76] |
| 0.0251 µM | COc1cc(C[C@H]2CCCN([C@H](C)c3ccc4oc(C)nc4n3)C2)cc(C)n1 (relative stereo) [Compound 23a] |
| 0.01 µM | Cc1cc(C[C@H]2CCCN(C(C)c3ccc4sc(C)nc4n3)C2)cc(C)n1 (single isomer, unassigned) [Compound 42b] |
| > 1 µM | Cc1cc(CO[C@H]2CCCN(C(C)c3ccc4sc(C)nc4n3)C2)cc(C)n1 (single isomer, unassigned) [Compound 67] |
| > 1 µM | Cc1cc(CO[C@@H]2CCCN(C(C)c3ccc4sc(C)nc4n3)C2)cc(C)n1 (single isomer, unassigned) [Compound 69] |

biological target: T2, recombinant human Meningioma Expressed Antigen 5 (MGEA5), also referred to as O-GlcNAcase (OGA) (Homo sapiens, UniProt O60502); experiment: OGA biochemical assay (inhibition of FM-GlcNAc hydrolysis, fluorescence); conditions: FM-GlcNAc substrate, 6 h at room temperature, read-out: Enzymatic hOGA, pIC50 (converted)
T2 construct: Full length OGA enzyme was purchased at OriGene (cat #TP322411); purchased OriGene TP322411
T2 sequence (O60502 1-916): T1 sequence (O60502 1-916)
Description: The assay is based on the inhibition of the hydrolysis of fluorescein mono-β-D-N-Acetyl-Glucosamine (FM-GlcNAc) (Mariappa et al. 2015, Biochem J 470:255) by the recombinant human Meningioma Expressed Antigen 5 (MGEA5), also referred to as O-GlcNAcase (OGA). The hydrolysis FM-GlcNAc (Marker Gene technologies, cat #M1485) results in the formation of β-D-N-glucosamineacetate and fluorescein. The fluorescence of the latter can be measured at excitation wavelength 485 nm and emission wavelength 538 nm. An increase in enzyme activity results in an increase in fluorescence signal. Full length OGA enzyme was purchased at OriGene (cat #TP322411). The enzyme was stored in 25 mM Tris.HCl, pH 7.3, 100 mM glycine, 10% glycerol at −20° C. Thiamet G and GlcNAcStatin were tested as reference compounds (Yuzwa et al. 2008 Nature Chemical Biology 4:483; Yuzwa et al. 2012 Nature Chemical Biology 8:393). The assay was performed in 200 mM Citrate/phosphate buffer supplemented with 0.005% Tween-20. 35.6 g Na2HPO4 2H2O (Sigma, #C0759) were dissolved in 1 L water to obtain a 200 mM solution. 19.2 g citric acid (Merck, #1.06580) was dissolved in 1 L water to obtain a 100 mM solution. pH of the sodiumphosphate solution was adjusted with the citric acid solution to 7.2. The buffer to stop the reaction consists of a 500 mM Carbonate buffer, pH 11.0. 734 mg FM-GlcNAc were dissolved in 5.48 mL DMSO to obtain a 250 mM solution and was stored at −20° C. OGA was used at a 2 nM concentration and FM-GlcNAc at a 100 uM final concentration. Dilutions were prepared in assay buffer.
50 nl of a compound dissolved in DMSO was dispensed on Black Proxiplate™ 384 Plus Assay plates (Perkin Elmer, #6008269) and 3 μl fl-OGA enzyme mix added subsequently. Plates were pre-incubated for 60 min at room temperature and then 2 μl FM-GlcNAc substrate mix added. […] Plates were briefly centrifuged for 1 min at 1000 rpm and incubate at room temperature for 6 h. To stop the reaction 5 μl STOP buffer were added and plates centrifuge again 1 min at 1000 rpm. Fluorescence was quantified in the Thermo Scientific Fluoroskan Ascent or the PerkinElmer EnVision with excitation wavelength 485 nm and emission wavelength 538 nm.
For analysis a best-fit curve is fitted by a minimum sum of squares method. From this an IC50 value and Hill coefficient was obtained. High control (no inhibitor) and low control (saturating concentrations of standard inhibitor) were used to define the minimum and maximum values.

| IC50 | Structure (SMILES) |
| --- | --- |
| 0.02 µM | Cc1cc(C[C@@H]2CCN(C(C)c3nc4nc(C)sc4cc3F)C2)cc(C)n1 (mixture of isomers) [Compound 50] |
| 0.0631 µM | Cc1cc([C@H]2CCCN([C@H](C)c3ccc4sc(C)nc4n3)C2)nc(C)n1 (racemic) [Compound 70] |
| 7.94 µM | Cc1cc([C@H]2CCCN([C@@H](C)c3ccc4sc(C)nc4n3)C2)nc(C)n1 (racemic) [Compound 71] |
| 2 µM | Cc1cc([C@H]2CCCN([C@H](C)c3ccc4sc(C)nc4n3)C2)cc(C)n1 (racemic) [Compound 75] |
| 0.00501 µM | Cc1cc([C@H]2CCCN([C@@H](C)c3ccc4sc(C)nc4n3)C2)cc(C)n1 (racemic) [Compound 76] |
| 0.00794 µM | COc1cc(C[C@H]2CCCN([C@H](C)c3ccc4oc(C)nc4n3)C2)cc(C)n1 (relative stereo) [Compound 23a] |
| 0.00251 µM | Cc1cc(C[C@H]2CCCN(C(C)c3ccc4sc(C)nc4n3)C2)cc(C)n1 (single isomer, unassigned) [Compound 42b] |
| 0.501 µM | Cc1cc(CO[C@H]2CCCN(C(C)c3ccc4sc(C)nc4n3)C2)cc(C)n1 (single isomer, unassigned) [Compound 67] |
| 0.501 µM | Cc1cc(CO[C@@H]2CCCN(C(C)c3ccc4sc(C)nc4n3)C2)cc(C)n1 (single isomer, unassigned) [Compound 69] |

same assay, conditions: FM-GlcNAc substrate, maximal effect

| Enzymatic Emax (%) | Structure (SMILES) |
| --- | --- |
| 101% | Cc1cc(C[C@H]2CCCN(C(C)c3ccc4sc(C)nc4n3)C2)cc(C)n1 (single isomer, unassigned) [Compound 42b] |

same assay, conditions: FM-GlcNAc substrate, maximal effect, read-out: Enzymatic Emax (%)

| Emax | Structure (SMILES) |
| --- | --- |
| 102% | Cc1cc(C[C@@H]2CCN(C(C)c3nc4nc(C)sc4cc3F)C2)cc(C)n1 (mixture of isomers) [Compound 50] |
| 98% | Cc1cc([C@H]2CCCN([C@H](C)c3ccc4sc(C)nc4n3)C2)nc(C)n1 (racemic) [Compound 70] |
| 51% | Cc1cc([C@H]2CCCN([C@@H](C)c3ccc4sc(C)nc4n3)C2)nc(C)n1 (racemic) [Compound 71] |
| 86% | Cc1cc([C@H]2CCCN([C@H](C)c3ccc4sc(C)nc4n3)C2)cc(C)n1 (racemic) [Compound 75] |
| 98% | Cc1cc([C@H]2CCCN([C@@H](C)c3ccc4sc(C)nc4n3)C2)cc(C)n1 (racemic) [Compound 76] |
| 101% | COc1cc(C[C@H]2CCCN([C@H](C)c3ccc4oc(C)nc4n3)C2)cc(C)n1 (relative stereo) [Compound 23a] |
| 94% | Cc1cc(CO[C@H]2CCCN(C(C)c3ccc4sc(C)nc4n3)C2)cc(C)n1 (single isomer, unassigned) [Compound 67] |
| 96% | Cc1cc(CO[C@@H]2CCCN(C(C)c3ccc4sc(C)nc4n3)C2)cc(C)n1 (single isomer, unassigned) [Compound 69] |
